Experiments:
[1] = test system: liver and white adipose tissue; assay: Histology of liver and white adipose tissue of treated ob/ob mice; format: in vivo
Description: C-75 treatment not only led to weight loss, but also corrected many of the pathological consequences that result from the extreme obesity of ob/ob mice. Liver samples from vehicle and C-75 treated mice (from FIG. 3B) were fixed in formalin and paraffin embedded. Tissue sections (4 μm) were stained with hematoxylin and eosin. […] The observation that C-75 acts through a leptin independent mechanism is particularly promising in that the majority of obese individuals appear to be relatively resistant to leptin's effects (Caro, et al., 1996, Lancet, 348:159).

serum glucose [2] = assay: Serum glucose in wild-type mice, acute treatment; format: in vivo, BALB/c mice; details: 30 mg/kg IP, 24 hours, n=7
Protocol: (§1) In addition to obesity, ob/ob mice also develop overt diabetes with significant elevation of blood glucose. C-75 corrected the hyperglycemia observed in vehicle treated mice with a nearly 3-fold reduction in mean serum glucose (FIG. 4A). Male ob/ob mice (n=3) were treated with C-75 or vehicle for 2 weeks (FIGS. 3B and C) and compared with age matched, untreated c57BL/6j mice (+/+). […] The normalization of blood glucose occurred from the profound weight loss in the ob/ob mice as acute treatment of normal mice with C-75 had no effect on serum other than that resulting from inhibition of feeding (FIG. 4B). Male BALB/c mice (n=7) were fasted for 24 hours or injected IP with 30 mg/kg C-75 or RPMI vehicle and allowed free access to food for 24 hours. In both cases, serum was collected at death and assayed for glucose: RefLab™ GLU (Medical Analysis Systems, Inc., Camarillo, Calif.). […] Both panels are representative of 2 experiments.

3T3-L1 adipocytes = assay: Cytoplasmic triglyceride accumulation in adipocytes in cell culture; format: cell-based; details: 3T3-L1 adipocytes in cell culture (not shown)
[3] = test system: neuropeptide Y (NPY) mRNA; assay: Northern blot of hypothalamic NPY mRNA; format: in vivo, BALB/c mice; details: 30 mg/kg C-75, 24 hours
Description: The control of body weight is integrated in the hypothalamus by a coordinated group of neuropeptides that monitor adiposity and feeding status and regulate feeding and energy utilization. A central regulator in this process is neuropeptide Y (NPY) (loftus, 1999, Sem. Cell. Dev. Biol., 10: 11). In the arcuate nucleus, the level of NPY increases in the fasted state (Schwartz, et al., 1998, Endocrinology, 139:2629), acting as a potent stimulus of feeding (O'Shea, et al., 1997, Endocrinology, 138:196-202). To ascertain whether C-75 might alter NPY regulation in the hypothalamus, the expression of NPY was examined by northern blot analysis of hypothalamic tissue microdissected from the brains of the fed, fasted and C-75-treated mice shown in FIG. 2A.
The hypothalamic region was microdissected from the brains of mice in FIG. 2A and total RNA was isolated. RNA was subjected to northern blot analysis using random primed probes (Feinberg, et al., 1983, Anal. Biochem., 132:6) for NPY and S26 (as a loading control). Tissue was extracted for total RNA as described, P. Chomczynski and N. Sacchi, Anal. Biochem. 162, 156(1987). 15 μg of total RNA was subjected to Northern blot analysis as described, T. Brown, K. Mackey, in Current Protocols in Molecular Biology, F. Ausubel, et al., Eds. (John Wiley and Sons, New York, 1997) pp. 4.9.1-4.9.16.

[4] = Weight loss in mice lacking IL-1r and TNFαr1a receptors; details: mouse, in vivo
Description: Alternatively, the signal from the FAS target tissue to the hypothalamus may be mediated by a humoral signal. This FAS-associated signal appears to be independent of the systemic release of the known feeding inhibitory hormones leptin and insulin, and the pro-inflammatory cytokines tumor necrosis factor-α and interleukin-1β. Nor is it reversed by administration of dexamethasone, a synthetic glucocorticoid.

leptin = assay: Serum leptin ELISA; format: in vivo, BALB/c mice; details: 30 mg/kg IP, 24 hours
Description: One of the primary signals modulating NPY function in feeding control is leptin. This hormone is elevated in the fed state and inhibits NPY production and feeding (Schwartz, et al., 1996, Diabetes, 45:531) in a manner similar to that observed with C-75 treatment. Leptin was an attractive candidate as its primary site of production, white adipose tissue (Zhang, et al., 1994, Nature, 372:425), is a site of fatty acid synthesis and expresses high levels of FAS. To test for increased leptin release as the signal mediating C-75 regulation of NPY, serum leptin levels were assessed in fed (end of light cycle) fasted and C-75-treated mice. BALB/c mice treated with RPMI vehicle (o) or 30 mg/kg C-75 (▪) I.P. and free fed, or fasted ([…]) for 24 hours were weighed, decapitated and exsanguinated. Serum leptin levels were determined using a QUANTIKINE™ murine leptin ELISA (R&D Systems) and plotted against total body weight (FIG. 3A). […] This reduction correlates with the reduction in body weight, presumably body fat, resulting from C-75 treatment FIG. 3A). […] Northern blot analysis of leptin message levels in white adipose tissue from the same animals (performed as described above) supports this observation (data not shown).

serum glucose [5] = assay: Serum glucose in ob/ob mice; format: in vivo; details: 2 weeks treatment, n=3
Protocol: as §1

## C=C1C(=O)OC(CCCCCCCC)C1C(=O)O (stereo not drawn) [C-75]
[1]; 14 days treatment
  liver histology (hepatomegaly and fatty liver): marked reduction in the hepatomegaly and fatty liver
[1]; 14 days treatment (not shown)
  mean adipocyte size in white adipose tissue: dramatic reduction in mean adipocyte size
[1]; liver and white adipose tissue
  histological abnormality from chronic treatment: no evidence of histological abnormality
Serum glucose [2]
  effect on serum glucose in wild-type mice: no effect on serum glucose beyond that attributable to fasting
3T3-L1 adipocytes
  cytoplasmic triglyceride accumulation: markedly reduces cytoplasmic triglyceride accumulation
[3]
  level of hypothalamic NPY mRNA: even lower than that of the fed controls
[4]
  weight loss in mice lacking IL-1r and TNFαr1a receptors: weight loss was observed
leptin
  serum leptin levels: reduction in leptin levels
Serum glucose [5]
  reduction in mean serum glucose: ~3 fold

Reference: US20100022639A1, “Methods of Inducing Weight Loss” (The Johns Hopkins University School of Medicine Licensing …, priority 2000, published 2010)
